Test results as given in patent US9233117B2, “Treatment of inflammatory lesions of rosacea with ivermectin” (Galderma S.A., priority 2013, dated 2016).
Several values for one entry are separate records, joined by “and”; a condition that tells them apart may be missing. Equal values may be shown once.

Assays:
subjects with PPR = test: Study 1 and Study 2: once-daily ivermectin 1% cream vs vehicle in moderate to severe PPR (Example 3); format: in vivo, human
Method: Both studies were conducted in accordance with the ethical principles of the Declaration of Helsinki and Good Clinical Practices, and in compliance with local regulatory requirements.
Each study had three parts. In the first part of the study, subjects with PPR were treated with ivermectin 1% cream (IVM 1%) or vehicle once daily at bedtime for 12 weeks. In the second part of the study, subjects initially treated with IVM 1% once daily at bedtime continued the same treatment, while subjects treated with the vehicle once daily switched to topical treatment with azelaic acid 15% gel twice daily, in the morning and evening. The third part of the study consisted of 4 weeks safety follow-up, without treatment.
Eligible subjects were 18 years or older, with moderate or severe papulopustular rosacea as noted by an IGA of 3 (“several small or large papules/pustules, moderate erythema”) or 4 (“numerous small and/or large papules/pustules, severe erythema”), and presenting with 15-70 facial inflammatory lesions (papules and pustules). […]
Efficacy assessments at each visit were the IGA of disease severity, and inflammatory lesion counts (papules and pustules) on each of the five facial regions (forehead, chin, nose, right cheek, left cheek). Safety assessments included adverse events (AEs) throughout the study, local tolerance parameters (stinging/burning, dryness, itching) at each study visit evaluated on a 4-point scale [from 0 (none) to 3 (severe)], and laboratory parameters (hematology and biochemistry) measured before and after treatment. […]
The co-primary efficacy endpoints in both studies were the success rate based on the IGA outcome and absolute change from baseline in inflammatory lesion counts at the end of week 12 of the studies. The success rate based on IGA score [% of subjects who achieved “clear” or “almost clear” ratings on the IGA scale at week 12 (ITT-LOCF)] was analyzed by the Cochran-Mantel-Haenszel (CMH) test stratified by analysis site, using the general association statistic. […]

[1] = Plasma pharmacokinetic study of ivermectin 1% cream in subjects with severe PPR (Example 5); format: in vivo, human
Method: A multi-center, open-label, single treatment study was conducted to assess the pharmacokinetic (PK) profile of ivermectin 1% (w/w) cream in subjects with severe PPR. A maximized dose of about 2 mg/cm^2 (1 g of ivermectin 1% (w/w) cream, equivalent to 10 mg ivermectin per application) was applied to the face once daily for 4 weeks. The treatment was followed by a 28-Day follow-up period.
A total of seventeen subjects received at least one dose of treatment. All subjects provided PK parameters at some time points, but fifteen (9 females and 6 males) provided full PK profiles at Days 0, 14 and 28.
Blood samples for determination of ivermectin levels in plasma were taken from all subjects before application on Days 0, 7, 14, 21 and 28 (pre-dose samples corresponding to Cmin). Additional blood samples were taken on Days 0, 14 and 28 at 1, 3, 6, 9 and 12 hours after application. At, the end of the 28-Day treatment, blood samples were taken on Days 29, 30, 32, 35, 38, 42, 49 and 56 during the follow-up period. The plasma was isolated and frozen (−20° C.) pending analysis.
The pharmacokinetic analysis was performed. From the individual plasma concentrations, the pharmacokinetic parameters were determined by non-compartmental method Kinetica™ sofware, version 4.3, InnaPhase Corporation, Philadelphia, USA).
AUC0-24 H was calculated by the mixed linear-logarithmic trapezoidal method at Day 0, 14 and 28. BLQ was imputed as zero in the individual PK profile.
During the follow up period, the following parameters were measured: • (1) AUC0-t: Area under the concentration-time curve calculated by the mixed linear-logarithmic trapezoidal method from T0 up to the sampling time corresponding to the last quantifiable concentration (Clast); • (2) Kel: The elimination rate constant value (kel) was obtained by linear regression of log-linear terminal phase of concentration-time profile using at least 3 data points, excluding Cmax, otherwise kel was not determined. The acceptability criteria for determination of kel was a coefficient of regression more or equal to 0.98. When kel was not determined, AUC0-inf and t½ were not reported; • (3) t½: The terminal half-life value (t½) was calculated using the equation ln2/kel; • (4) AUC0-inf: Area under the plasma concentration-time curve calculated by the mixed linear-logarithmic trapezoidal method from T0 and extrapolated to time infinity as: AUC0-inf=AUC0-t+Clast/kel.
When the extrapolation represented more than 20%, AUC0-inf and t1/2 […]. Mean values, standard deviation (SD), lowest individual value (Min), maximal individual value (Max) and coefficient of variation (CV) were calculated and reported on each variables (Arithmetic mean for AUC, Cmax, Tmax and harmonic mean for t1/2). Conversely to the protocol, the standard error of mean (SEM) were not calculated and not reported. In addition a statistical analysis was performed on ivermectin specific parameters (including the accumulation ratios).

[2] = orally administered; cited from earlier work

ivermectin
plasma accumulation of ivermectin (subjects with PPR; 52-week treatment period (Phase 3 study)): no plasma accumulation | median reduction from baseline in inflammatory lesion counts (subjects with PPR; Study 1, week 2): about 30% | median reduction from baseline in inflammatory lesion counts (subjects with PPR; Study 2, week 2): 27.3% | AUC0-24 H, Min-Max ([1]; Day 0): [3.16-21.28] ng · h/mL | AUC0-24 H, mean ± SD ([1]; Day 0): 9.29 ± 5.40 ng·h/mL | Pre-dose/Cmin, Min-Max ([1]; Day 0): [0.17-0.86] ng/mL | Tmax, Min-Max ([1]; Day 0): [1-24] h | Pre-dose/Cmin, mean ± SD ([1]; Day 0 (24 hours after D0), plasma, 1 g ivermectin 1% cream on the face once daily): 0.37 ng/mL and 0.37 ± 0.21^(a) ng/mL | Cmax, mean ± SD ([1]; Day 0 (single topical application)): 0.69 ng/mL | Pre-dose/Cmin, Min-Max ([1]; Day 7): [0.56-3.26] ng/mL | Pre-dose/Cmin, mean ± SD ([1]; Day 7, plasma, ivermectin 1% cream once daily): 1.17 ± 0.88 ng/mL | Pre-dose/Cmin, Min-Max ([1]; Day 14): [0.58-2.34] ng/mL | Tmax, Min-Max ([1]; Day 14): [0-24] h | AUC0-24 H, mean ± SD ([1]; Day 14 (steady state)): 36.14 ± 15.56 ng·h/mL | Cmax, mean ± SD ([1]; Day 14 (steady state)): 2.10 ± 1.04 ng/mL | Tmax, mean ± SD ([1]; Day 14 (steady state)): 10 ± 8 h | Pre-dose/Cmin, mean ± SD ([1]; Day 14, plasma, ivermectin 1% cream once daily): 1.26±0.53 ng/mL and 1.26 ± 0.53^(c) ng/mL | Pre-dose/Cmin, Min-Max ([1]; Day 21): [0.66-3.25] ng/mL | Pre-dose/Cmin, mean ± SD ([1]; Day 21, plasma, ivermectin 1% cream once daily): 1.36±0.66 ng/mL and 1.36 ± 0.66^(c) ng/mL | AUC0-24 H, mean ± SD ([1]; Day 28): 35.43 ± 14.42 ng·h/mL | Cmax, Min-Max ([1]; Day 28): [0.58-3.36] ng/mL | Cmax, mean ± SD ([1]; Day 28): 1.74 ± 0.77 ng/mL | Pre-dose/Cmin, Min-Max ([1]; Day 28): [0.53-3.00] ng/mL | Tmax, Min-Max ([1]; Day 28): [3-24] h | Tmax, mean ± SD ([1]; Day 28): 11 ± 4 h | total systemic exposure (AUC0-inf) ([1]; Day 28): 312 ± 173 ng·h/mL | Pre-dose/Cmin, mean ± SD ([1]; Day 28, plasma, ivermectin 1% cream once daily): 1.36 ± 0.63 ng/mL | time of last quantifiable concentration after application ([1]; after Day 28): approximately 24 days | apparent terminal half-life, range ([1]; after the last topical application (Day 28), 14 subjects): 92 to 238 h | relative bioavailability vs oral administration of ivermectin ([1]; steady state, topical): 16% | t1/2, typical [2]: around 18 hours
